*1 amine or outer side, *2 acyl side, *3 side chain or, on linkers, in order; H or OH if unused. Where a SMILES comes first, the peptide text is derived from it. [ ]: non-standard residue; d: D form. X2 = C=CCCCC[C@H](N[*:1])C(=O)[*:2]
Target: Phospholipid-transporting ATPase ABCA1 (Mus musculus, UniProt P41233)
Test: Induction of ABCA1-mediated [3H]cholesterol efflux in mouse RAW 264.7 macrophages after 24 hrs

Phospholipid-transporting ATPase ABCA1, sequence (P41233 whole entry): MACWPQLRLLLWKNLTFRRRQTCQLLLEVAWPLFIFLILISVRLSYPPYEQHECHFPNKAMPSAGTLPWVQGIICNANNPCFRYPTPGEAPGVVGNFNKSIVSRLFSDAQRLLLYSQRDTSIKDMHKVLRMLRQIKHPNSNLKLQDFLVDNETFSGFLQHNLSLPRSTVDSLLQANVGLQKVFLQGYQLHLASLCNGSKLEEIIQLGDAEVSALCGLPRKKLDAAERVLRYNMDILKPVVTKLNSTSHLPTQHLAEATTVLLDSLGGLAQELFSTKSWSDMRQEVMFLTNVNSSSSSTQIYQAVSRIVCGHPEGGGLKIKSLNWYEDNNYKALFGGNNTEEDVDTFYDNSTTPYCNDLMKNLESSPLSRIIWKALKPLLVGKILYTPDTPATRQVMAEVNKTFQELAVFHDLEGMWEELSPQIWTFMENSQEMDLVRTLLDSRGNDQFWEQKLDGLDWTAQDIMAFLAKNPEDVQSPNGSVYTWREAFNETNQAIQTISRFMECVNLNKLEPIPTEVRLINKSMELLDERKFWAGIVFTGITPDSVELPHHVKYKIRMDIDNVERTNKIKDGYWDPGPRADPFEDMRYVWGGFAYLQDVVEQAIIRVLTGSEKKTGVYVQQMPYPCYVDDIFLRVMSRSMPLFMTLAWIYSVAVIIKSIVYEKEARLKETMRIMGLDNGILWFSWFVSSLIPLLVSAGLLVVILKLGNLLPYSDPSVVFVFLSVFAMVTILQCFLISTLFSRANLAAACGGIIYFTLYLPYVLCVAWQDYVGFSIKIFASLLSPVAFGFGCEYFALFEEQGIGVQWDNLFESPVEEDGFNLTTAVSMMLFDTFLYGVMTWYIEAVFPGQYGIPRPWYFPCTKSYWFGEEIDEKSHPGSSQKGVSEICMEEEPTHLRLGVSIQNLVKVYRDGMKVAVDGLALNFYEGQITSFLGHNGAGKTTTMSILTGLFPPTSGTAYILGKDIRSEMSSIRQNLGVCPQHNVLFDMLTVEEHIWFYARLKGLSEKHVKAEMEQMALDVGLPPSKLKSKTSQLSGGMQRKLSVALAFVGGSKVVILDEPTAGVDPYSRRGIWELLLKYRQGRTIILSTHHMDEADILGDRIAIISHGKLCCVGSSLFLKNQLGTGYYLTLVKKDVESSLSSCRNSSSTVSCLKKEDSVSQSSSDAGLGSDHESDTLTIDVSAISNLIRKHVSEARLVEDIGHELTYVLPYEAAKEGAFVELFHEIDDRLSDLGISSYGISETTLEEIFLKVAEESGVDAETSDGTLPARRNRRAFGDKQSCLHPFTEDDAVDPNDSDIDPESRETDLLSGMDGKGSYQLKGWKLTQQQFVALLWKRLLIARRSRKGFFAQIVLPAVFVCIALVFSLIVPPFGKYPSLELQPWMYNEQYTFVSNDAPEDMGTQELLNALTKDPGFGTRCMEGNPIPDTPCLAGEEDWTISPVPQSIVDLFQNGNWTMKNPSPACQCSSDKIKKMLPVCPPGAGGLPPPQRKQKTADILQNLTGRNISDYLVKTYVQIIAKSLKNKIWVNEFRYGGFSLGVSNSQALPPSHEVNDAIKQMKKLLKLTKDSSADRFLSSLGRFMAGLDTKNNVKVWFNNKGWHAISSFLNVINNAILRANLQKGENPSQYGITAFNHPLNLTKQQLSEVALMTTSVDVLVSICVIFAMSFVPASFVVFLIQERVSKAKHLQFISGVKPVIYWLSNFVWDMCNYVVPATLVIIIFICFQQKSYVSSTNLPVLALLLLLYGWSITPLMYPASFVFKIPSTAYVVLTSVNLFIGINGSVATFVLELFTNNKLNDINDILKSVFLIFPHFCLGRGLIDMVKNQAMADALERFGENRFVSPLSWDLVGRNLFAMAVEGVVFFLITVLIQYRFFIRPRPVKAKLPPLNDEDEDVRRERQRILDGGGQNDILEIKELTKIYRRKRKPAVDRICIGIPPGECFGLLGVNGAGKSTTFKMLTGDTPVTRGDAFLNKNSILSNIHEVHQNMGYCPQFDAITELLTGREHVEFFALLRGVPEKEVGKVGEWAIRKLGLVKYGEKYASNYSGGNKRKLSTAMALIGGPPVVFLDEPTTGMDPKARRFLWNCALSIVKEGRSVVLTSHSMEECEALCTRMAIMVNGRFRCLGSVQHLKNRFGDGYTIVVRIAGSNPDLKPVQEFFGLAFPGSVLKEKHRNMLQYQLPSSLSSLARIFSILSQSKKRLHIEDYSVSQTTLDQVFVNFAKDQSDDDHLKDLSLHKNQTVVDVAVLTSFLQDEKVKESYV

Row | EC50 [µM] | SMILES
1 | 1.4 | C=CCCCC[C@H](NC(=O)[C@H](CCC(=O)O)NC(=O)[C@H](CC(N)=O)NC(=O)[C@H](CC(C)C)NC(=O)[C@H](CCCCN)NC(=O)[C@H](CCC(=O)O)NC(=O)[C@H](CCCNC(=N)N)NC(=O)[C@H](Cc1ccccc1)NC(=O)[C@H](CCC(=O)O)NC(=O)[C@H](CC(=O)O)NC(=O)[C@H](CC(C)C)NC(=O)[C@@H](NC(=O)[C@@H]1CCCN1C(C)=O)C(C)C)C(=O)N[C@@H](CC(C)C)C(=O)N[C@@H](CCC(=O)O)C(=O)N[C@@H](C)C(=O)N[C@@H](CC(C)C)C(=O)N[C@@H](CCCCN)C(=O)N[C@@H](CCC(N)=O)C(=O)N[C@@H](CCCCN)C(=O)N[C@@H](CC(C)C)C(=O)N[C@@H](CCCCN)C(N)=O (Ac-PVLDEFREKLNE[X2]LEALKQKLK-NH2)
2 | > 100 | C=CCCC[C@@H](NC(=O)[C@H](CCC(=O)O)NC(=O)[C@H](CC(N)=O)NC(=O)[C@H](CC(C)C)NC(=O)[C@H](CCCCN)NC(=O)[C@H](CCC(=O)O)NC(=O)[C@H](CCCNC(=N)N)NC(=O)[C@H](Cc1ccccc1)NC(=O)[C@H](CCC(=O)O)NC(=O)[C@H](CC(=O)O)NC(=O)[C@H](CC(C)C)NC(=O)[C@@H](NC(=O)[C@@H]1CCCN1C(C)=O)C(C)C)C(=O)N[C@@H](CC(C)C)C(=O)N[C@@H](CCC(=O)O)C(=O)N[C@@H](C)C(=O)N[C@@H](CC(C)C)C(=O)N[C@@H](CCCCN)C(=O)N[C@@H](CCC(N)=O)C(=O)N[C@@H](CCCCN)C(=O)N[C@@H](CC(C)C)C(=O)N[C@@H](CCCCN)C(N)=O

The remaining lines, values behind:

Row | SMILES | EC50 [µM]
3 | C=CCCCC[C@H](NC(=O)[C@H](CCC(=O)O)NC(=O)[C@H](CCCN=C(N)N)NC(=O)[C@H](Cc1ccccc1)NC(=O)[C@H](CCC(=O)O)NC(=O)[C@H](CC(=O)O)NC(=O)[C@H](CC(C)C)NC(=O)[C@@H](NC(=O)[C@@H]1CCCN1C(C)=O)C(C)C)C(=O)N[C@@H](CC(C)C)C(=O)N[C@@H](CC(N)=O)C(=O)N[C@@H](CCC(=O)O)C(=O)N[C@@H](CCC(=O)O)C(=O)N[C@@H](CC(C)C)C(=O)N[C@@H](CCC(=O)O)C(=O)N[C@@H](C)C(=O)N[C@@H](CC(C)C)C(=O)N[C@@H](CCCCN)C(=O)N[C@@H](CCC(N)=O)C(=O)N[C@@H](CCCCN)C(=O)N[C@@H](CC(C)C)C(=O)N[C@@H](CCCCN)C(N)=O | > 100
4 | C=CCCCC[C@H](NC(=O)[C@H](CCCCN)NC(=O)[C@H](CCC(N)=O)NC(=O)[C@H](CCCCN)NC(=O)[C@H](CC(C)C)NC(=O)[C@H](C)NC(=O)[C@H](CCC(=O)O)NC(=O)[C@H](CC(C)C)NC(=O)[C@H](CCC(=O)O)NC(=O)[C@H](CCC(=O)O)NC(=O)[C@H](CC(N)=O)NC(=O)[C@H](CC(C)C)NC(=O)[C@H](CCCCN)NC(=O)[C@H](CCC(=O)O)NC(=O)[C@H](CCCNC(=N)N)NC(=O)[C@H](Cc1ccccc1)NC(=O)[C@H](CCC(=O)O)NC(=O)[C@H](CC(=O)O)NC(=O)[C@H](CC(C)C)NC(=O)[C@@H](NC(=O)[C@@H]1CCCN1C(C)=O)C(C)C)C(=O)N[C@@H](CCCCN)C(N)=O | > 100
5 | C=CCCCCC[C@@H](NC(=O)[C@H](CCC(=O)O)NC(=O)[C@H](CCCNC(=N)N)NC(=O)[C@H](Cc1ccccc1)NC(=O)[C@H](CCC(=O)O)NC(=O)[C@H](CC(=O)O)NC(=O)[C@H](CC(C)C)NC(=O)[C@@H](NC(=O)[C@@H]1CCCN1C(C)=O)C(C)C)C(=O)N[C@@H](CC(C)C)C(=O)N[C@@H](CC(N)=O)C(=O)N[C@@H](CCC(=O)O)C(=O)N[C@@H](CCC(=O)O)C(=O)N[C@@H](CC(C)C)C(=O)N[C@@H](CCC(=O)O)C(=O)N[C@@H](C)C(=O)N[C@@H](CC(C)C)C(=O)N[C@@H](CCCCN)C(=O)N[C@@H](CCC(N)=O)C(=O)N[C@@H](CCCCN)C(=O)N[C@@H](CC(C)C)C(=O)N[C@@H](CCCCN)C(N)=O | > 100

Reference: ChEMBL document CHEMBL1629456, “ApoA-I mimetic peptides promote pre-β HDL formation in vivo causing remodeling of HDL and triglyceride accumulation at higher dose” (Bioorg Med Chem, 2010)
